{"source": "patent US5843955A", "about": "“Compound LK6-A” (Kyowa Hakko Kogyo Co., Ltd., priority 1995, dated 1998)", "key": {"[1]": {"system": "L1210 cell", "conditions": "Tetrahedron Letters, 31, 3271 (1990); cited from earlier work"}, "[2]": {"system": "Nippostrongylus brasiliensis", "conditions": "U.S. Pat. No. 4,959,370; J. Am. Chem. Soc., 112, 1 (1990); cited from earlier work"}, "[3]": {"system": "reverse transcriptase", "conditions": "U.S. Pat. No. 4,959,370; J. Am. Chem. Soc., 112, 1 (1990); cited from earlier work"}, "[4]": {"system": "T cells", "assay": "Growth inhibition against T cells in murine mixed lymphocyte reaction", "type": "cell-based", "conditions": "Mus musculus, T-cell; 72 hours at 37° C., [^3 H]Thymidine incorporation (added 18 hours before end); read-out: 50% inhibitory concentration (IC50) against the growth of T cells in murine mixed lymphocyte reaction", "description": "Growth inhibition against T cells in murine mixed lymphocyte reaction\nLymph node was aseptically excised from a B10.BR mouse (Japan SLC Inc.) with a solution comprising Hanks' […] salt solution (HBSS, Gibco) and 2.5% fetal calf serum (FCS, Gibco) (hereinafter referred to as HBSS-FCS) and resuspended into a culture medium (RPMI 1640, Nissui) containing 10% fetal calf serum (FCS, Gibco), 1% 200 mM L-Gultamine (Gibco), 1% Penicillin-Streptoymycin liquid (Gibco), 5% NCTC-109 (Gibco), 1% 1M HEPES (Gibco), 7.5% NaHCO3 (SIGMA) and 0.1% 50 mM 2-mercaptoethanol (Nakarai) (hereinafter referred to as RPMI 1640-FCS) to prepared a single cell suspension to give a density of 3×10^6 cells/ml. […]\n[^3 H]Thymidine was added to the wells in an amount of 1.0 μCi/well 18 hours before the end of each incubation. […] A toluene scintillator was added to the cells, and the amount of [^3 H]Thymidine radioactivity incorporated into the cells was determined using a liquid scintillation counter. The T cell growth inhibition rate was calculated according to the following equation. […]\nC: Amount of [^3 H]Thymidine radioactivity incorporated into the mixed cell suspension\nT: Amount of [^3 H]Thymidine radioactivity incorporated into the LK6-A-treated mixed cell suspension\nA: Amount of [^3 H]Thymidine radioactivity incorporated into only the B10.BR murine lymph node cells. […]"}, "[5]": {"assay": "Solubility", "type": "physicochemical"}}}
{"compound": "plakinidine B", "values": [{"measurement": "cytotoxic activity against the L1210 cell", "setting": "[1]", "value": "cytotoxic activity"}, {"measurement": "activity against a parasite Nippostrongylus brasiliensis", "setting": "[2]", "value": "activity"}]}
{"compound": "plakinidine A", "values": [{"measurement": "cytotoxic activity against the L1210 cell", "setting": "[1]", "value": "cytotoxic activity"}, {"measurement": "activity against a parasite Nippostrongylus brasiliensis", "setting": "[2]", "value": "activity"}, {"measurement": "reverse transcriptase inhibitory activity", "setting": "[3]", "value": "reverse transcriptase inhibitory activity"}]}
{"compound": "CO/C=C/C(=O)c1cc2c3c(c(N)cc(NC(C)=O)c3n1)N=C2", "note": "[LK6-A]", "values": [{"measurement": "IC50", "setting": "[4]", "value": 9, "unit": "nM"}, {"measurement": "Solubility", "setting": "[5]; chloroform", "value": "sparingly soluble"}, {"measurement": "Solubility", "setting": "[5]; dimethylsulfoxide (DMSO)", "value": "Soluble"}, {"measurement": "Solubility", "setting": "[5]; hexane", "value": "insoluble"}, {"measurement": "Solubility", "setting": "[5]; methanol", "value": "sparingly soluble"}, {"measurement": "Solubility", "setting": "[5]; water", "value": "sparingly soluble"}]}
{"compound": "CNc1c2ncc3c4ccccc4[nH]c(c4nccc(=O)c14)c23", "note": "[plakinidine C]", "values": [{"measurement": "cytotoxic activity against the L1210 cell", "setting": "[1]", "value": "cytotoxic activity"}]}
